Measured values: patent publication US9974870B2, “Compositions and methods for treatment and imaging using nanoparticles” (Washington University, priority 2014, dated 2018)
Read-outs that look alike come from different tables or passages of the source. Non-standard residues stand in square brackets, D forms with d. Residues, ends and D or L forms follow the SMILES beside them. Primed or numbered codes have the meaning given here. *: point of attachment. DOTA = O=C(O)CN1CCN(CC(=O)O)CCN(CC(=O)*)CCN(CC(=O)O)CC1; DTPA′ = chelating agent complexing 111In or 64Cu; Tyr(3-I) = N[C@@H](Cc1ccc(O)c(I)c1)C(=O)O; Orn = NCCC[C@H](N)C(=O)O; Ahx = NCCCCCC(=O)O

Tests used:
[1] = biological target: T1, caspase-3 (Homo sapiens, UniProt P42574); assay: Caspase-3 mediated hydrolysis, enzyme kinetics by radio-HPLC; assay type: biochemical; settings: caspase-3 290 pM, 37° C., pH 7.4
T1 construct: purchased Cal Biochem
T1 sequence (P42574 29-175 limits assumed): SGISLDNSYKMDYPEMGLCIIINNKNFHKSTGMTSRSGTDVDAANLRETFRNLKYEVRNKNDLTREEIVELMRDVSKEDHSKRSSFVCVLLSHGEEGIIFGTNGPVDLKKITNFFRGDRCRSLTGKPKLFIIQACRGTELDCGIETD
T1 sequence (P42574 176-277 limits assumed): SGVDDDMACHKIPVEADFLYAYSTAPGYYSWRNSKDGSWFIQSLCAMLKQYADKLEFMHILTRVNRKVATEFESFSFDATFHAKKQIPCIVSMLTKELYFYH
Protocol: However, the dimer readily converts back to single molecules under the high reducing conditions such as used to prepare the ^99mTc chelate. Kinetic analysis of caspase-3 activation with [^125I]LS370 using a radionuclide detector (radio-high-performance liquid chromatography) gave a KM and kcat of 15±3 1 μM and […], respectively.
[^125I]LS370 was dissolved in caspase buffer {100 mM NaCl, 50 mM 4-(2-hydroxyethyl)-1-piperazineethanesulfonic acid, 10 mM DTT, 1 mM ethylenediaminetetraacetic acid, 10% glycerol, and 0.1% 3-[(3-cholamidopropyl) dimethylammonio]-1-propanesulfonate, pH 7.4} at concentrations varying from 2.5 to 20 μM. […] These solutions were allowed to react at 37° C. for 180 min and were sampled every 30 min. Substrate hydrolysis was monitored by radio-high-performance liquid chromatography (Vydac, C-18, 4.6×250 mm, 1 ml/m, A=H2O, 0.1% TFA, B=ACN, 0.1% TFA; 10-90% B, 30 min, linear gradient) of these time point samples. Comparison to a standard caspase-3 substrate (Ac-DEVD-pNA) and calculation of the enzyme kinetic parameters were carried out as previously described.

[2] = system: 4T1luc tumors; assay: Tissue biodistribution in tumor-bearing Balb/c mice; assay type: in vivo; settings: at 1 h after tail vein injection
Protocol: (§1) The structure-activity relationship was evaluated in vivo by performing a tissue biodistribution study in naive (FIG. 26) and tumor-bearing Balb/c mice (FIG. 23). […] The tumor/blood ratios for both [^125I]LS370 and [^125I]LS734 was 0.6±0.03. The tumor/muscle ratios were similar as well but higher than the tumor/blood ratios, [^125I]LS734 (2.2±0.1) and [^125I]LS370 (2.1±0.3). Thyroid uptake was 73±21 and 115±73 for [^125I]LS370 and [^125I]LS734, respectively.
(§2) All animal studies were conducted according to guidelines on the humane care and use of laboratory animals under protocols approved by the Animal Studies Committee at Washington University School of Medicine. For tissue biodistribution studies, syngeneic breast tumor models were prepared via bilateral orthotopic implantation of luciferase-transfected 4T1 mouse mammary carcinoma cells (4T1luc, 5×10^5 cells per tumor) in the mammary fat pads of 6-week-old, female Balb/c mice (NCI, Frederick, Md., USA). Studies were conducted when the tumors reached about 3 mm maximum diameter (−10 days). Healthy female Balb/c mice (n=4 per time point) were anesthetized with 1-2% vaporized isoflurane and injected via tail vein with 0.185 MBq of [^125I]LS370 or [^125I]LS734 (specific activities: [^125I]LS370-40×10^6 MBq/mmol; [^125I]LS734-10×10^6 MBq/mmol). At 1 h post injection, mice were killed. Organs of interest were removed and blotted dry. The radioactivity was measured in a gamma counter (Packard II gamma counter). Diluted standard doses (1:100) were prepared and counted along with the samples. Data points were corrected for radioactive decay. The percent injected dose per gram of tissue (% ID/g) was calculated.

[3] = as above; assay type: in vivo; settings: female, Balb/c, mouse, iv, 0.185 MBq, total radioactivity, 1 h post injection; for tissue uptake at 1 h: thyroid
Protocol: as §1, §2

[4] = system: MDA-MB-231 cells; assay: Cell uptake and efflux studies; assay type: cell-based, human; settings: for cell uptake: untreated MDA-MB-231 cells, 2 h postincubation at 37° C.
Text: The goals of the cell-uptake studies were to (1) assess any changes in the structure-activity relationship resulting from the modular and responsive probe design and (2) evaluate the retention of the iodine containing hydrophobic peptide moiety in treated and untreated cells. Metastatic human breast MDA-MB-231 cells were used to evaluate whether the amino acid sequence modulation would enhance internalization, and how the probe would respond (intracellular) postchemotherapy. In the untreated cells, there was a higher uptake (P<0.001) of [^125I]LS734 (3.6±0.5) than [^125I]LS370 (0.3±0.3) at 2 h postincubation at 37° C. (FIG. 22A). […] The amount of iodinated fraction released by the untreated and treated cells at 3 h (post 2 h incubation and removal of excess activity) was used as a measure of the efflux activity.
MDA-MB-231 cells used for the uptake and efflux assay were grown on 24-well tissue culture plates until they were 80-90% confluent with […] cells per well. […] The experimental treatment group of cells was treated with 10 ng/ml of SN-38 (7-ethyl-10-hydroxy-camptothecin, Sigma Aldrich) for 24 h. Then, the SN-38 was removed, and the second chemotherapeutic drug, UCN-01 (Sigma Aldrich), was introduced at a concentration of […] in 0.1% BSA per well. At this point, respective radioactive solutions ([^125I]LS734 or [^125I]LS370, 0.02 μg per well; specific activities: [^125I]LS370-40×10^6 MBq/mmol; [^125I]LS734-10×10^6 MBq/mmol) were added to treated and control groups. The solutions were added drop-wise into the wells and gently mixed to ensure homogeneous distribution. The final volume per well was 240 μl, and the plates were incubated at 37° C. (5% CO2) for 2 h. After incubation, the supernatant (fraction 1) was collected, and the cells were washed twice with 250 μl of cold serum-free media. […] Fraction 2 represents the cell efflux, which is the amount of radioactivity released from cells after the 2 h uptake. […] The radioactivity in each fraction was measured in a well counter (Packard II gamma counter).

[5] = biological target: T2, MMP9 (Homo sapiens, UniProt P14780); assay: In vitro MMP9 cleavage of ^111In from non-radioactive gold nanoparticle probe; assay type: biochemical
Protocol: (§3) To further validate the specificity of the activation, an identical experiment as the one just described was performed with an ^111In-labeled non-radioactive gold nanoparticle probe, similar to a radioactive nanoparticle previously reported. An initial in vitro validation was performed; when incubated with MMP9 for 48 hours, 48% ^111In was cleaved from the nanoparticle compared to only 16% without MMP9. With this singly-labeled probe, an alternative in vivo ratiometric imaging approach was performed (FIG. 18A). Rather than compare the ratio between two gamma energy channels, uptake intensity ratios between the lungs and kidneys or bladder were quantified. Importantly, clear distinctions were observed between the MMP9 and control groups. […] Differences were also observed 5 hours after injection (FIG. 18C), where the bladder/lung ratio remained elevated in the MMP9-incubated condition (0.19±0.15) compared to the control (0.03±0.003).
The dual-radiolabeled nanocrystal suspension was separated into 50 μL samples containing 20 ng MMP9 and incubated at 37° C. for 9 hours (along with control that was incubated without MMP9). 50 μL (˜80 μCi ^199Au and 40 μCi ^111In) was then intratracheally injected into C57 Black6 mice and two-channel SPECT imaging was performed as described above. […]

[6] = biological target: T2, MMP9; assay: Organ ratiometric SPECT imaging (kidney/lung, bladder/lung) after MMP9 pre-incubation; assay type: in vivo, C57 Black6 mice
Protocol: as §3
The dual-radiolabeled nanocrystal suspension was separated into 50 μL samples containing 20 ng MMP9 and incubated at 37° C. for 9 hours (along with control that was incubated without MMP9). 50 μL (˜80 μCi ^199Au and 40 μCi ^111In) was then intratracheally injected into C57 Black6 mice and two-channel SPECT imaging was performed as described above. In another experiment, a similar protocol was performed with the non-radioactive gold NP core functionalized with an ^111In-labeled, MMP9-cleavable peptide. Briefly, 10 mL of 10 nm diameter gold nanoparticles (Sigma Aldrich) was centrifuged at 10 k g-force for 70 minutes, supernatant was removed, the pellet was resuspended in 1 mL of ultrapure water containing 2.2 mg mPEG-SH (MW=5000) and 1.0 mg pMMP9 peptide, and shaken overnight. Suspension was again centrifuged at 10 k g-force, supernatant removed, and the pellet was resuspended in 500 μL 0.1 M NH4OAc buffer (pH 5.5). Then 15 μL ^111InCl (5.23 mCi) was added and shaken at 45° C. for 90 minutes. Suspension was centrifuged at 10 k g-force for 90 minutes, supernatant removed, and the pellet containing 2.96 mCi was resuspended in 500 μL buffer. 50 μL aliquots with or without 10 ng MMP9 were prepared and shaken at 37° C. for 16 hours. 50 μL (˜230 μCi ^111In) was then intratracheally injected into C57 Black6 mice (n=4/group) and SPECT imaging was performed using the 245 keV channel immediately upon injection and 5 and 24 hours later.

[7] = biological target: T2, MMP9; assay: In vitro MMP9 experiment with ^64Cu-labeled peptide-functionalized gold NPs; assay type: biochemical
Protocol: Once surface-functionalized with the peptide and PEG, an experiment was performed in PBS in order to characterize the ability of MMP9 to cleave the peptide present on the nanoparticle surface. In this experiment, ^64Cu was chelated to DTPA on the peptide attached to the NP. The suspension was incubated with MMP9 for 1.5 hours and then the supernatant solution was separated from the NPs by centrifugal filtration. […] To further confirm the presence of the cleaved peptide, high performance liquid chromatography (HPLC) was performed on the supernatant solutions, and co-registered UV and radioactive peaks associated with the radiolabeled peptide fragment were observed (FIG. 6).
1 mL of peptide-functionalized gold NPs was centrifuged, supernatant decanted, and resuspended in 0.1 M NH4OAc. 110 μCi ^64Cu, provided by the Washington University Cyclotron Facility, was added to the NP pellet and shaken at 45° C. for 1 hour. Radiolabeled NPs were purified from nonchelated ^64Cu by centrifugation. Then NP suspensions were incubated with 20 ng MMP9 for 1.5 hours, after which 450 μL PBS was added and supernatant was purified from the NPs by centrifugation filtration using a 10 k MW filter. Supernatant and NP pellets were counted for radioactivity in a PerkinElmer 1480 Automatic Gamma Counter.

[8] = MMP9-incubated probe, immediately upon injection
[9] = control probe without MMP9, immediately upon injection

T2 sequence (P14780 94-707, species assumed): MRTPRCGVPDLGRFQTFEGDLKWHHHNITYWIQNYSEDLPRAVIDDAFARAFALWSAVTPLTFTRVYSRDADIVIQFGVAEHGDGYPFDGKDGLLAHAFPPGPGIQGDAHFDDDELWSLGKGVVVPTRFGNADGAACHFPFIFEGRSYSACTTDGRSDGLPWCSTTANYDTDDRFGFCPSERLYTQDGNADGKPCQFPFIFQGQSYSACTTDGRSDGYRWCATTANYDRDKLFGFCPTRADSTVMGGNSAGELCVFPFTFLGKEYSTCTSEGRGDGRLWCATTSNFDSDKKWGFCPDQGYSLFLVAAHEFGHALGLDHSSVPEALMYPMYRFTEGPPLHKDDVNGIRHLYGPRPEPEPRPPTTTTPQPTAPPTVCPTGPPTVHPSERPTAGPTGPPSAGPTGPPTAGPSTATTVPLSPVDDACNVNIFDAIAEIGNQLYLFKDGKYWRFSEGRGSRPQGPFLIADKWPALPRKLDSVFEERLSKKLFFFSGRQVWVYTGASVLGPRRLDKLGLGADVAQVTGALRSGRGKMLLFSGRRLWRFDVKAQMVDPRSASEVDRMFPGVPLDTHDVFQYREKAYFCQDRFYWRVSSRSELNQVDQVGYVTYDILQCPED

Compound: CC(=O)N[C@@H](CC(=O)O)C(=O)N[C@@H](CCC(=O)O)C(=O)N[C@H](C(=O)N[C@@H](CC(=O)O)C(=O)Nc1ccc([N+](=O)[O-])cc1)C(C)C [Ac-DEVD (SEQ ID NO:2)-pNA, Ac-DEVD-pNA]
- Km [1]: 11 µM
- kcat [1]: 2.4 M/s

Compound: CC[C@H](C)[C@H](NC(=O)[C@H](C)NC(=O)[C@H](CC(C)C)NC(=O)[C@H](Cc1ccc(O)c(I)c1)NC(C)=O)C(=O)NCCCCCC(=O)N1CCC[C@H]1C(=O)N[C@@H](C)C(=O)N[C@@H](CC(=O)O)C(=O)N[C@@H](CCC(=O)O)C(=O)N[C@H](C(=O)N[C@@H](CC(=O)O)C(=O)NCC(=O)N[C@@H](CCCNC(=N)N)C(=O)N[C@@H](CCCNC(=N)N)C(=O)N[C@@H](CCCNC(=N)N)C(=O)N[C@@H](CCCN)C(=O)N[C@@H](CCCNC(=N)N)C(=O)N[C@@H](CCCNC(=N)N)C(=O)N[C@@H](CCCCN)C(=O)N[C@@H](CCCCN)C(=O)N[C@@H](CCCNC(=N)N)C(=O)N[C@@H](CCCCNC(=O)CN1CCN(CC(=O)O)CCN(CC(=O)O)CCN(CC(=O)O)CC1)C(N)=O)C(C)C [[^125I]LS734] (Ac-[Tyr(3-I)]LAI[Ahx]PADEVDGRRR[Orn]RRKKRK(DOTA)-NH2)
- blood circulation [2]: circulated longer in blood as compared to [^125I]LS370
- tissue uptake at 1 h [3]: 115 ± 73 %ID/g
- efflux activity: iodinated fraction released by untreated versus treated cells ([4]; at 3 h (post 2 h incubation and removal of excess activity), treatment SN-38 then UCN-01): higher amount of activity was released from untreated cells compared to treated cells
- cell uptake [4]: 3.6±0.5

Compound: CC(=O)NCCCCCC(=O)N[C@@H](Cc1ccc(O)c(I)c1)C(=O)NCCCCCC(=O)N[C@@H](CC(=O)O)C(=O)N[C@@H](CCC(=O)O)C(=O)N[C@H](C(=O)N[C@@H](CC(=O)O)C(=O)NCC(=O)N[C@@H](CCCCN)C(=O)NCC(=O)N[C@@H](CS)C(N)=O)C(C)C [[^125I]LS370] (Ac-[Ahx][Tyr(3-I)][Ahx]DEVDGKGC-NH2)
- tissue to tissue ratio at 1 h ([3]; 4T1luc tumor / blood, read-out: tumor/blood ratio): 0.6 ± 0.03
- tissue to tissue ratio at 1 h ([3]; 4T1luc tumor / muscle, read-out: tumor/muscle ratio): 2.1 ± 0.3
- tissue uptake at 1 h [3]: 73 ± 21 %ID/g
- cell uptake [4]: 0.3±0.3

Compound: ^111In-labeled non-radioactive gold nanoparticle probe ({DTPA′}-GPLGVRGKGYG[Ahx]C-NH2; not fully specified (residue 13); printed as Gly-Pro-Leu-Gly-Val-Arg-Gly-Lys-Gly-Tyr-Gly-Ahx-Cys; also: 111In chelated by DTPA, Cys thiol anchored to gold nanoparticle)
- ^111In cleaved from the nanoparticle ([5]; incubated with MMP9 for 48 hours): 48%
- ^111In cleaved from the nanoparticle ([5]; without MMP9): 16%
- bladder/lung uptake ratio ([6]; MMP9-incubated probe, 5 hours after injection): 0.19±0.15
- bladder/lung uptake ratio [6, 8]: 0.56±0.24
- kidney/lung uptake ratio [6, 8]: 0.12±0.04
- bladder/lung uptake ratio ([6]; control probe without MMP9, 5 hours after injection): 0.03±0.003
- bladder/lung uptake ratio [6, 9]: 0.08±0.04
- kidney/lung uptake ratio [6, 9]: 0.01±0.004

Compound: ^64Cu-labeled nanoparticles ({DTPA′}-GPLGVRGKGYG[Ahx]C-NH2; not fully specified (residue 13); also: DTPA chelates 64Cu)
- radioactivity observed in the supernatant after incubation with MMP9 ([7]; […] incubation with MMP9, PBS, centrifugal filtration): 23%
- radioactivity observed in the supernatant, control without MMP9 ([7]; […], without MMP9): < 5%
